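The compound was tested at five concentrations on cells cultured in 96-well plates, with a 48-hour exposure period. GI50 = concentration required for 50% inhibition of growth.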 Active and inactive are the calls of the source. Cut-off read from the data, not from the text of the source: active = GI50 up to about 1.1 µM and inactive = higher.
Columns and labels:
Test in all cases: NCI anticancer screen, dose series, 48 h
NCI-H522 = test system: NCI-H522
HCC 2998 = test system: HCC 2998
T47D = test system: T47D
MOLT-4 = test system: MOLT-4
EKVX = test system: EKVX
Malme-3M = test system: Malme-3M
NCI-H460 = test system: NCI-H460
A498 = test system: A498
COLO 205 = test system: COLO 205
KM12 = test system: KM12
OVCAR-8 = test system: OVCAR-8
MDA-MB-435 = test system: MDA-MB-435
ACHN = test system: ACHN
UO-31 = test system: UO-31
NCI-H23 = test system: NCI-H23
OVCAR-4 = test system: OVCAR-4
SF-539 = test system: SF-539
LOX IMVI = test system: LOX IMVI
786-0 = test system: 786-0
HOP-92 = test system: HOP-92

Measured: GI50

COc1ccc(N2C(=O)C3c4[nH]c5ccccc5c4C4CCCCCCCC4C3C2=O)cc1 (stereo not given)
inactive: NCI-H522 > 10 µM | HCC 2998 > 10 µM | T47D > 10 µM | MOLT-4 > 10 µM | EKVX > 10 µM | Malme-3M > 10 µM | NCI-H460 > 10 µM | A498 > 10 µM | COLO 205 > 10 µM | KM12 > 10 µM | OVCAR-8 > 10 µM | MDA-MB-435 > 10 µM | ACHN > 10 µM | UO-31 > 10 µM | NCI-H23 > 10 µM | OVCAR-4 > 10 µM | SF-539 6.95 µM

CC(NC(CC12CC3CC(CC(C3)C1)C2)C(N)=O)c1ccccc1 (stereo not given)
inactive: NCI-H522 18 µM | HCC 2998 17.5 µM | T47D 35.6 µM | MOLT-4 16.2 µM | EKVX 23.4 µM | Malme-3M 17.9 µM | NCI-H460 17.4 µM | A498 14.6 µM | COLO 205 12.6 µM | OVCAR-8 23.6 µM | MDA-MB-435 16.7 µM | ACHN 20.9 µM | UO-31 19.2 µM | OVCAR-4 33.7 µM | LOX IMVI 15.7 µM

NNc1[nH]c(=S)[nH]c1C(N)=O
inactive: NCI-H522 > 100 µM | HCC 2998 > 100 µM | T47D > 100 µM | MOLT-4 > 100 µM | EKVX > 100 µM | Malme-3M > 100 µM | NCI-H460 > 100 µM | A498 > 100 µM | COLO 205 > 100 µM | KM12 > 100 µM | OVCAR-8 > 100 µM | MDA-MB-435 > 100 µM | UO-31 > 100 µM | 786-0 > 100 µM | NCI-H23 > 10 µM | OVCAR-4 > 100 µM | SF-539 > 100 µM | LOX IMVI > 100 µM

COc1ccc2c(C)cc(N/N=C/c3ccc(OC)c4ccccc34)nc2c1
inactive: NCI-H522 12 µM | T47D 5.51 µM | MOLT-4 3.97 µM | EKVX 17.7 µM | Malme-3M 17.5 µM | NCI-H460 16.6 µM | COLO 205 16.7 µM | KM12 13.2 µM | OVCAR-8 18.5 µM | MDA-MB-435 11.2 µM | HOP-92 11.2 µM | ACHN 4.48 µM | UO-31 12.6 µM | 786-0 12.1 µM | NCI-H23 16.5 µM | OVCAR-4 19 µM | SF-539 15.8 µM | LOX IMVI 3.71 µM

CN1CCC(CNC(=O)CCCCCCCCC(=O)NCC2(c3ccccc3)CCN(C)CC2)(c2ccccc2)CC1
inactive: NCI-H522 > 100 µM | HCC 2998 > 100 µM | T47D 30.7 µM | MOLT-4 > 100 µM | EKVX 8.22 µM | Malme-3M > 100 µM | NCI-H460 > 100 µM | A498 > 100 µM | COLO 205 69.7 µM | KM12 > 100 µM | OVCAR-8 > 100 µM | MDA-MB-435 > 100 µM | ACHN > 100 µM | UO-31 > 100 µM | 786-0 52.4 µM | OVCAR-4 > 100 µM | SF-539 15 µM | LOX IMVI > 100 µM

N#Cc1sc2c(c1O)c(=O)n(-c1ccccc1)c(=S)n2-c1ccccc1
inactive: NCI-H522 > 100 µM | HCC 2998 > 100 µM | T47D > 100 µM | Malme-3M > 100 µM | NCI-H460 > 100 µM | COLO 205 > 100 µM | KM12 > 100 µM | OVCAR-8 > 100 µM | MDA-MB-435 > 100 µM | HOP-92 > 100 µM | ACHN > 100 µM | UO-31 > 100 µM | 786-0 > 100 µM | NCI-H23 > 100 µM | OVCAR-4 > 100 µM | LOX IMVI > 100 µM

Cc1cc2ncn(C3CCCO3)c2cc1C (stereo not given)
inactive: NCI-H522 12.1 µM | HCC 2998 > 100 µM | T47D > 100 µM | MOLT-4 > 100 µM | EKVX > 100 µM | Malme-3M > 100 µM | COLO 205 > 100 µM | KM12 74.5 µM | OVCAR-8 > 100 µM | MDA-MB-435 > 100 µM | HOP-92 > 100 µM | ACHN > 100 µM | UO-31 28.3 µM | 786-0 > 100 µM | NCI-H23 > 100 µM | OVCAR-4 > 100 µM | SF-539 > 100 µM | LOX IMVI > 100 µM

O=c1c2cn[nH]c2nc2scc(-c3ccc(Cl)cc3)n12
inactive: NCI-H522 > 100 µM | HCC 2998 > 100 µM | T47D > 100 µM | MOLT-4 > 100 µM | EKVX > 100 µM | Malme-3M > 100 µM | NCI-H460 > 100 µM | COLO 205 > 100 µM | KM12 > 100 µM | OVCAR-8 > 100 µM | MDA-MB-435 > 100 µM | ACHN > 100 µM | UO-31 > 100 µM | 786-0 > 100 µM | NCI-H23 > 100 µM | OVCAR-4 > 100 µM | SF-539 > 100 µM | LOX IMVI > 100 µM

COC(=O)Nc1nc(=O)c2cc(OC)c(OC)cc2[nH]1
inactive: NCI-H522 2.37 µM | HCC 2998 71.3 µM | T47D 36 µM | MOLT-4 6.84 µM | EKVX > 100 µM | Malme-3M 5.31 µM | NCI-H460 9.33 µM | A498 71.9 µM | COLO 205 4.4 µM | KM12 5.31 µM | OVCAR-8 47.6 µM | ACHN > 100 µM | UO-31 49.4 µM | 786-0 45.5 µM | NCI-H23 50 µM | OVCAR-4 > 100 µM | SF-539 24.2 µM

Cc1cc(Nc2ccc(S(=O)(=O)O)c3cc(S(=O)(=O)O)cc(S(=O)(=O)O)c23)c2ccccc2n1
inactive: NCI-H522 > 100 µM | HCC 2998 > 100 µM | T47D > 100 µM | MOLT-4 > 100 µM | EKVX > 100 µM | Malme-3M > 100 µM | NCI-H460 > 100 µM | A498 > 100 µM | COLO 205 > 100 µM | KM12 > 100 µM | OVCAR-8 > 100 µM | MDA-MB-435 > 100 µM | ACHN > 100 µM | UO-31 > 100 µM | 786-0 > 100 µM | NCI-H23 > 100 µM | OVCAR-4 > 100 µM | SF-539 > 100 µM | LOX IMVI > 100 µM

COc1ccc(-c2cc(O)c3cccnc3n2)cc1
inactive: NCI-H522 41.1 µM | HCC 2998 82 µM | T47D 51.1 µM | MOLT-4 29.3 µM | EKVX > 100 µM | Malme-3M 31.9 µM | A498 63.5 µM | COLO 205 19.1 µM | KM12 33.7 µM | OVCAR-8 57.1 µM | ACHN 53.7 µM | UO-31 54.6 µM | NCI-H23 34.7 µM | OVCAR-4 67.6 µM | SF-539 42.4 µM | LOX IMVI 28.1 µM
